# PubChem BioAssay (NCI)
# Several values for one entry are separate records, joined by “and”; a condition that tells them apart may be missing. Equal values may be shown once.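 Cells were grown in 96-well plates and exposed to each compound for 48 hours at five concentrations; endpoints were interpolated linearly between bracketing concentrations, or set to the highest concentration if not reached. At the GI50, growth is halved. TGI is the concentration that stops growth completely.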
# Assays:
# Assay in all cases: inhibition of tumour cell growth, NCI panel, 48 h
# [1] = system: HCT-116 colon
# [2] = system: OVCAR-8 ovarian
# [3] = system: LOX IMVI melanoma
# [4] = system: KM12 colon
# [5] = system: HOP-62 NSCLC
# [6] = system: HOP-92 NSCLC
# [7] = system: 786-0 renal
# [8] = system: BT-549 breast
# [9] = system: RPMI-8226 leukemia
# [10] = system: IGROV1 ovarian
Compound,GI50 [1],TGI [1] [µM],GI50 [2],TGI [2],GI50 [3],TGI [3],GI50 [4],TGI [4],GI50 [5],TGI [5],GI50 [6],TGI [6] [µM],GI50 [7],TGI [7],GI50 [8],TGI [8],GI50 [9],TGI [9] [µM],GI50 [10],TGI [10]
COc1ccc(/C=C2\CCC/C(=C\c3ccc(OC)c(OC)c3)C2=O)cc1OC,1.14 µM,5.07,1.16 µM,> 32.5 µM,1.15 µM,9.02 µM,1.02 µM,> 32.5 µM,4.59 µM,> 32.5 µM,11.3 µM,> 32.5,5.59 µM,> 32.5 µM,1.7 µM,> 32.5 µM,1.15 µM,> 32.5,1.72 µM,> 32.5 µM
COc1cc2nnc3c4cccnc4[nH]c3c2cc1OC,0.292 µM and 0.127 µM,,3.91 µM and 1.25 µM,50 µM and > 100 µM,1.43 µM and 1.41 µM,15.7 µM and 4.69 µM,2.68 µM and 1.91 µM,50 µM and 15.4 µM,13.5 µM and 2.26 µM,37.1 µM and 5.61 µM,0.771 µM and 0.212 µM,,1.46 µM and 0.319 µM,7.1 µM and 1.63 µM,6.42 µM and 3.75 µM,43.9 µM and 35.1 µM,1.45 µM and 0.187 µM,,1.02 µM and 1.73 µM,19.4 µM and 5.83 µM
Cc1ccc(NC(=O)c2cc(S(=O)(=O)Nc3nnc(-c4ccccc4)c(-c4ccccc4)n3)c(SCc3ccccc3)cc2Cl)cc1,28.5 µM,75.7,29.4 µM,76.8 µM,13.3 µM,28.6 µM,21.5 µM,50.7 µM,36.1 µM,> 100 µM,18.8 µM,42.9,33.9 µM,> 100 µM,19.8 µM,45.9 µM,11.8 µM,44.8,26.9 µM,93.7 µM
CCN(CC)c1ccc2nc3ccc(=[N+](CC)CC)cc-3oc2c1,0.0402 µM,1.27,0.121 µM,,0.11 µM,1.59 µM,0.122 µM,8.13 µM,0.93 µM,32.2 µM,1.31 µM,5.14,1.18 µM,2.6 µM,2.32 µM,21 µM,0.264 µM,20,0.107 µM,0.862 µM
